Key:
Format in all cases: cell-based
[1] = test system: tunneling nanotubes (TNTs) in 50:50 DS/MDR MDA-MB-231 cells; experiment: Number of TNTs/cm^2 counted in 50:50 DS/MDR co-culture after treatment; conditions: 50:50 DS/MDR ratio of MDA-MB-231 cells, n=25, FIG. 4C
[2] = test system: DS TNBC cells; experiment: Wound healing assay (cell migration), drug sensitive cells; conditions: AS-LNP at 10 PM and 30 PM, n=10, FIG. 6A
Excerpt: (§1) SNARE proteins mediate EV release but also mediate the fusion of TNTs with recipient cells.

[3] = test system: MDR TNBC cells; experiment: Wound healing assay (cell migration), MDR cells; conditions: AS-LNP at 10 PM and 30 PM, n=10, FIG. 6B
Excerpt: as §1

SMILES | number of TNTs/cm^2 [1] | cell migration in wound healing assay [2] | cell migration in wound healing assay [3]
C/C1=C\[C@@H](C)C/C=C/[C@H]2[C@@H]3O[C@]3(C)[C@@H](C)[C@H]3[C@H](Cc4c[nH]c5ccccc45)NC(=O)[C@]32C(=O)/C=C/C(=O)[C@@H]1O [CA, chaetoglobosin A] | significantly reduced the number of TNTs | – | –
O=C(/C=C/c1ccc(/C=C/C(=O)Nc2ccc(C3=NCCN3)cc2)cc1)Nc1ccc(C2=NCCN2)cc1 [GW4869] | – | did not decrease cell migration | did not decrease cell migration
CN(C)C(=N)N=C(N)N [metformin] | more effective in reducing the number of TNTs | – | –

Reference: US20250312411A1, “Treatment of Multi-Drug-Resistant Cancers Using Nanoparticulate Drug Delivery Vehicles” (priority 2024, published 2025)
